For experiment [1], the system named is OVCAR-3 (human ovarian carcinoma). The experiment in a line: Ovarian carcinoma model OVCAR-3 in SCID mice. The format is in vivo. Particulars: QC-56 60 mg/kg/ip. The text has this: • Species and strain: […] OVCAR-3 (human ovarian carcinoma). […] Control groups received the vehicle alone.
The target in experiment [2] is T1, human HO-1 (hHO-1) in transfected astroglia (Homo sapiens, UniProt P09601).
T1 construct: containing the entire protein-coding region (866 bp) of the human HO-1 gene; expressed in transfected cells; host or cells: primary rat astrocytes, transient transfection with pcDNA3.1/Zeo.CMV.Flag.hHO-1 (Lipofectamine 2000)
T1 sequence (P09601 1-288): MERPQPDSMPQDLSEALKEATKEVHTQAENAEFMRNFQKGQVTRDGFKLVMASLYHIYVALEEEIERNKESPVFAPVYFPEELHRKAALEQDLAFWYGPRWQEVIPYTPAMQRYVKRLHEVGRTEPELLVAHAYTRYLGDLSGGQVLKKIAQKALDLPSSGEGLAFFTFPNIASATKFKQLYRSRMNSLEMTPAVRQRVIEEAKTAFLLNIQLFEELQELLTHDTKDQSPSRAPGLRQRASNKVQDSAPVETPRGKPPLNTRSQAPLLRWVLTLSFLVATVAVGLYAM
The experiment in a line: HO enzyme activity (bilirubin formation) in hHO-1-transfected astrocytes. It counts as cell-based. The note with it: 6.5 μM. Here is the method:
Upon reaching >90% confluence, 1×10^6 cells were transiently transfected with 4.0 μg of plasmid DNA-Lipofectamine 2000 complex using Lipofectamine 2000 method according to manufacturer instructions (Invitrogen). […] 12 μg of plasmid DNA and 16 μl of Lipofectamine 2000 reagent were diluted in 1.5 mL opti-MEM I reduced serum medium and incubated for 5 minutes at room temperature with gentle mixing. The two solutions were combined, incubated at room temperature for 20 minutes to promote formation of DNA-lipid complexes and administered to the cells. 2 mL opti-MEM I reduced serum medium was added to the flasks to ensure coverage of the monolayer by the transfection mixture. Following incubation for 6 hours at 37° C., the transfection mixture was replaced with 10 mL of complete media without antibiotics.
A young adult male rat was gas-anesthetized, laid on ice and systemically perfused with ice-cold 0.9% NaCl to get rid of all blood from liver. The liver was then excised on ice and transferred to a cold room (4° C.) and cut into small pieces in cold 0.9% NaCl (3 mL per gram of tissue) with surgical scissors in and placed in a 50 mL tube. The tissue chunks were homogenized with an electric tissue homogenizer and centrifuged at 150×g for […] at 4° C. Similarly, all of the following steps, including centrifugations, were performed at 4° C. The supernatant was centrifuged at 18,000×g for 10 min and further at 30,000×g for 30 min. A saturated solution of ammonium sulfate was added to the 30,000×g supernatant to attain 40% saturation and placed on ice for 10 min. The mixture was centrifuged at 10,000×g for 10 min and supernatant was recovered and transferred to a fresh tube. Sixty percent of saturation was achieved by adding saturation solution of ammonium sulfate to the supernatant. The mixed solution was centrifuged again at 10,000×g for 10 min and […]. […] The dialysate was centrifuged at 10,000 g for 10 min and pellet was discarded. The protein concentration of the supernatant was measured with Bradford reagent (BioRad laboratories, Hercules, Calif.) and adjusted to 10 mg/mL with 0.01 M KPO4, pH7.4. The supernatant was aliquoted and stored at −20° C. ready for use.
Cytosol extracts were prepared for HO activity measurement by the method of Ryter (Ryter, Kvam, Tyrrell 2000). Astroglial monolayers were washed with ice-cold PBS and scraped in ice-cold PBS-EDTA (1 mM, pH 8.0) containing 50 μg/mL protease inhibitor (AEBSF), centrifuged at 150×g at 4° C. and resuspended in 20 mM Tris-HCl (pH 7.4) and 0.25 M sucrose containing protease inhibitors. Cell suspensions were sonicated on ice 2×15 s at 20 W and centrifuged for 20 min at 4° C. at 15,000×g. Protein concentration of supernatant was measured with Bradford method. […] Reaction mixtures were incubated at 37° C. in the dark for 60 min with hard vortex every 10 min. […] HO activity was calculated as nanomoles bilirubin per milligram protein per min, assuming an extinction coefficient of 40/mM/cm in chloroform (see FIG. 8).
Cells were rinsed twice with cold PBS (pH 7.4) and scraped in iced lysis buffer consisting of 1% Nonidet P-40, 50 mM Tris.HCl (pH 7.4), 30 mM NaCl, 25 mM β-glycerophosphate, 10 mM EDTA, 10 mM EGTA, 1 mM MgCl2, and protease inhibitors (10 mM sodium fluoride, 50 μg/mL AEBBSF, 5 μg/mL leupeptin, 5 μg/mL pepstatin, 5 μg/mL aprotinin). […] Protein contents were determined using the Bradford method. […]

The test system of experiment [3] is SKMEL-V+ tumors (blood vessels, CD31 positive cells). The experiment in a line: CD31 / H&E staining, microvessel density of SKMEL-V+ tumors. It counts as in vivo, mouse. The note with it: SKMEL-V+ tumors from treated mice; hydrochloride. The protocol:
SKMEL-V (human melanoma cells). SKMEL-V cells were derived from SKMEL-24 cells (ATCC) by overexpression of mouse VEGF. […] Tumors were either snap frozen in liquid nitrogen or fixed in 10% buffered formalin and embedded in paraffin. […] BD PharMingen, San Diego, Calif.). […] Sections were rehydrated in PBS and then blocked with 5% normal goat serum for 1 h. The sections were then incubated overnight at 4° C. with CD31 antibody diluted 1:25 in 3% BSA-PBS. […] Paraffin-embedded material was used for Harris' hematoxylin. Microvessel density was quantified using a method described by Weidner et al ([…], and Folkman […]. Med, 1991; 324:1-8). Briefly, randomly vascularized areas were selected (hot spots) under 40× field and 100× fields. Then a 400× field was used to count microvessels in each of these areas. Single endothelial cells or clusters of endothelial cells with or without lumen were considered to be individual vessels. […] All slides were examined blindly with no prior knowledge of the treatment status.

Entries after “also recorded” stand apart in the source; their conditions may differ.

As to `Brc1ccc(CCC2(Cn3ccnc3)OCCO2)cc1.Cl` [QC-56, 1-((2-(2-(4-Bromophenyl)ethyl)-1,3-dioxolan-2-yl)methyl)-1H-imidazole hydrochloride], the “reduction of tumor growth” value in experiment [1] was “approximately 15%”. Also, the “tumor size on the day of sacrifice” value in experiment [1] (CDDP 3 mg/kg) was 1.12±0.08 cm^3. Besides, the “HO activity in HO-1-transfected astroglia” value in experiment [2] (18 h, hHO-1-transfected cells, hydrochloride) is “suppressed to levels akin to those of non-transfected and sham-transfected controls; also recorded: significantly attenuated; also recorded: significantly decreased”. In addition, the “expression level of flag-tagged HO-1 protein” value in experiment [2] (transiently transfected cells) is reported as “without affecting the expression level of flag-tagged HO-1 protein”. In addition, the “tumor vascularization (vessel count, size, CD31)” value in experiment [3] was “significant reduction in the density of blood vessels; also recorded: significant reduction in vascularization; also recorded: significant decrease in the size and number of blood vessels”.

The record behind these values is US20140155445A1, “Compounds and Methods for Treating Cancer and Diseases of the Central Nervous System” (Osta Biotechnologies Inc., priority 2007, published 2014).
